Results taken from patent publication US20210308110A1, “ANTIVIRAL COMPOUNDS AND METHOD FOR TREATING RNA VIRAL INFECTION, PARTICULARLY COVID-19” (Senhwa Biosciences, Inc., priority 2020, published 2021).

Columns and labels:
[1] = tested on: SARS-CoV-2; experiment: SARS-CoV-2 infection of Vero E6 cells, quantified by N protein expression (IFA / PRNT); format: cell-based; settings: Severe acute respiratory syndrome coronavirus 2, Vero C1008, Vero E6 cells pretreated 20 hr, infected at MOI=0.01 for 2 days, read-out: IC50 (anti-SARS-CoV-2 activity)
[2] = in vitro; settings: African green monkey
[3] = tested on: SARS-CoV-2; experiment: SARS-CoV-2 plaque reduction neutralization test, plaque formation; format: cell-based; settings: at 1.25 μM
[4] = Cell viability test by Cell Counting Kit-8 (CCK-8); settings: African green monkey
[5] = tested on: SARS-CoV-2; experiment: Mouse challenge with SARS-CoV-2, lung histopathology scoring; format: in vivo, AAV/hACE2 C57BL/6 mice; settings: 50 mg/kg I.P., AAV/hACE2 mice, day 5 post-SARS-CoV-2 infection; score scale 0-5; 2 out of 5

SMILES | IC50 [1] [nM] | CC50 [2] [nM] | reduction of plaque formation [3] [%] | CC50 [4] [nM] | clinical score of lung histopathology [5]
CCC(CC)COC(=O)[C@H](C)N[P@](=O)(OC[C@H]1O[C@@](C#N)(c2ccc3c(N)ncnn23)[C@H](O)[C@@H]1O)Oc1ccccc1 [Compound E, Remdesivir, reference compound] | 830 | > 5000 |  |  | 
O=C1NC(=O)/C(=C/c2cnn3c(NC4CC4)cc(Nc4cc(Cl)ccc4F)nc23)N1 [Compound B] | 126 |  | 75 | 5900 | 
O=C(O)c1ccc2c(c1)nc(Nc1cccc(Cl)c1)c1ccncc12 [Compound A, Silmitasertib] | 2740 |  | 75 | > 5000 | less than 2
CC(N)C(=O)OCN1C(=O)N/C(=C\c2cnn3c(NC4CC4)cc(Nc4cc(Cl)ccc4F)nc23)C1=O (stereo not drawn) [Compound C] | 97 |  | 75 | 4220 | 
